Reference: ChEMBL document CHEMBL1132102, “Dysidiolide and related gamma-hydroxy butenolide compounds as inhibitors of the protein tyrosine phosphatase, CDC25” (Bioorg Med Chem Lett, 1999)

Columns and labels:
[1] = target: T1, M-phase inducer phosphatase 2 (Homo sapiens, UniProt P30305); test: In vitro inhibitory activity against human Cell division cycle 25B
T1 sequence (P30305 whole entry): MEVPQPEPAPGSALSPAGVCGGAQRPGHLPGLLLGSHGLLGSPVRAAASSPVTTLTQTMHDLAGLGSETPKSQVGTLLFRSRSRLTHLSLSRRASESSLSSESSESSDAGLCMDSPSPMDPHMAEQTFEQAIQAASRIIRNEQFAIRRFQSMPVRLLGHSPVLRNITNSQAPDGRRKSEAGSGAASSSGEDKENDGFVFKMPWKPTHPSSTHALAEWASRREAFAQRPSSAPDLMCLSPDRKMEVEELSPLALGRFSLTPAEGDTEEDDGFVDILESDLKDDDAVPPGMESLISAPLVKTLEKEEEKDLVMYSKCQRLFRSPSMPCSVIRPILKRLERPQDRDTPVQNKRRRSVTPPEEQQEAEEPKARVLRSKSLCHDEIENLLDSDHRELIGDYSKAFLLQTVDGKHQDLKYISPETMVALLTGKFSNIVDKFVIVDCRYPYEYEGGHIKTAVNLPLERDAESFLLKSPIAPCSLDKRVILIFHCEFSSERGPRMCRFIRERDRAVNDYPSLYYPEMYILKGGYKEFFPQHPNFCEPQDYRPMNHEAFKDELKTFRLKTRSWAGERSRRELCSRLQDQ

[2] = target: T2, M-phase inducer phosphatase 3 (Homo sapiens, UniProt P30307); test: In vitro inhibitory activity against human Cell division cycle 25 degree C
T2 sequence (P30307 whole entry): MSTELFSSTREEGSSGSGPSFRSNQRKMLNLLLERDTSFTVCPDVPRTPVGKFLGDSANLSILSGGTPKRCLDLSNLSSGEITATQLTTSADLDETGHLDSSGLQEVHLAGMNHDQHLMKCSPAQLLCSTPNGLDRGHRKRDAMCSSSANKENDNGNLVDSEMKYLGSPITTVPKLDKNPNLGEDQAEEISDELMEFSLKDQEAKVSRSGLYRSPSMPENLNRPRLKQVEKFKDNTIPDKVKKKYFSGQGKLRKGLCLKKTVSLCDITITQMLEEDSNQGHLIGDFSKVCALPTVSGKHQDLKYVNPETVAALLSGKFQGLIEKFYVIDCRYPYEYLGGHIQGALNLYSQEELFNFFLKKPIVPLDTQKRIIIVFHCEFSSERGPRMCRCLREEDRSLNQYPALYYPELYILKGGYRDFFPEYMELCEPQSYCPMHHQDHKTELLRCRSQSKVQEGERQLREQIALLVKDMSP

C=C(C)CCC[C@@]1(C)CCC[C@@]2(C)C1=CC[C@H](C)[C@]2(C)C[C@@H](O)C1=CC(=O)O[C@@H]1O (stereo in doubt; form 2)
IC50 [1]: > 2 mM
IC50 [2]: > 2 mM
